Test results from patent publication US7713994B2 (Wyeth LLC, priority 2005, dated 2010).
pIC50: −log10 of the molar value. Where two headings read alike, the source gives them in different places.

Columns and labels:
[1] = molecular target: T1, cyclin E/CDK2 enzyme (Homo sapiens, UniProt P24941); test: CDK2 ELISA kinase assay (phospho-Rb ser 795 detection); format: biochemical; conditions: In Vitro Enzyme Assay, cyclin E/CDK2, read-out: CDK2 IC50
T1 construct: made in house; host or cells: Sf9 insect cells, recombinant baculovirus
How it was run: (§1)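 Wells were coated overnight with GST-Rb C-terminal fragment, then blocked. Compound (10 ug/ml final) and cyclin/CDK enzyme from baculovirus-infected Sf9 cells with 200 μM ATP reacted 1 h at 30° C. Ser795 phosphorylation was detected by ELISA at 450 nm.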

[2] = tested on: BT474; test: Cytotoxicity assay (SRB), BT474; format: cell-based; conditions: BT474 cells, 6 days, SRB, read-out: In Vitro Cellular Activity IC50 BT474
How it was run: (§2)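 BT474 (12000 cells/well) was treated for 6 days, whereas HCT-116 (4000), LoVo (6000) and MCF-7 (6000) were treated for 3 days, all in RPMI 1640 containing 5% FBS. Surviving-cell percentage came from SRB dye binding measured at 540 nm.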

[3] = molecular target: T2, cyclin B/CDK1 enzyme (Homo sapiens, UniProt P06493); test: CDK1 ELISA kinase assay (phospho-Rb ser 795 detection); format: biochemical; conditions: In Vitro Enzyme Assay, cyclin B/CDK1, read-out: CDK1 IC50
T2 construct: purchased New England BioLabs; host or cells: Sf9 insect cells, recombinant baculovirus
T2 sequence (P06493 whole entry): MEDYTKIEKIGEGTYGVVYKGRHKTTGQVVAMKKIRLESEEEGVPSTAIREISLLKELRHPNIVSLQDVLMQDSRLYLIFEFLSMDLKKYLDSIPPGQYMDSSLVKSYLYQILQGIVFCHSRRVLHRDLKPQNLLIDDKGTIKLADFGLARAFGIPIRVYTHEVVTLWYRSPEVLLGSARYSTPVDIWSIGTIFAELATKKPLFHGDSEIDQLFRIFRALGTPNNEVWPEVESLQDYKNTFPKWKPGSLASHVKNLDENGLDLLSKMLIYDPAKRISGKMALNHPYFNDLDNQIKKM
T2 sequence (P14635 whole entry partner): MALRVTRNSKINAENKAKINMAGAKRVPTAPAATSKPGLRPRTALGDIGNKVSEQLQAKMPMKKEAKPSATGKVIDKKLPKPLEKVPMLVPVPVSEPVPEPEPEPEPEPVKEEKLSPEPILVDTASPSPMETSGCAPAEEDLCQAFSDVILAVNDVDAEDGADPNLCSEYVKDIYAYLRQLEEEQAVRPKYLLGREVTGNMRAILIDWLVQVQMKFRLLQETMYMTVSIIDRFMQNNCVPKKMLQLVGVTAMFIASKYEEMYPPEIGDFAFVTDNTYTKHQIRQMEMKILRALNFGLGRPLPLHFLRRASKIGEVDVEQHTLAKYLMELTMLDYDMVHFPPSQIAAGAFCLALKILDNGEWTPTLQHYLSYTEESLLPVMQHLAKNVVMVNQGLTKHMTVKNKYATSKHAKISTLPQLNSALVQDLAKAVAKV
How it was run: as §1

[4] = tested on: LoVo; test: Cytotoxicity assay (SRB), LoVo; format: cell-based; conditions: LoVo cells, 3 days, SRB, read-out: In Vitro Cellular Activity IC50 LOVO
How it was run: as §2

[5] = molecular target: T3, cyclin D1/cdk 4 enzyme (Homo sapiens, UniProt P11802); test: CDK4 ELISA kinase assay (phospho-Rb ser 795 detection); format: biochemical; conditions: In Vitro Enzyme Assay, cyclin D1/cdk 4, read-out: CDK4 IC50
T3 construct: made in house; host or cells: Sf9 insect cells, recombinant baculovirus
T3 sequence (P11802 whole entry, species assumed): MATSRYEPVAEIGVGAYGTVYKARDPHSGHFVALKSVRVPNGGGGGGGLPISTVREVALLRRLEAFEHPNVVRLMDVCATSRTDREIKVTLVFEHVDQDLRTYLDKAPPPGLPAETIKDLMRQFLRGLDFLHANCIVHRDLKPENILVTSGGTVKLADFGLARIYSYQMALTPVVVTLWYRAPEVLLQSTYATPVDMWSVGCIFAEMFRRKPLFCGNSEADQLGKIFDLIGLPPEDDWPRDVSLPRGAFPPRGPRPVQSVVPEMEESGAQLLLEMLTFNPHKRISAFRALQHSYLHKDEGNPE
T3 sequence (P24385 whole entry partner, species assumed): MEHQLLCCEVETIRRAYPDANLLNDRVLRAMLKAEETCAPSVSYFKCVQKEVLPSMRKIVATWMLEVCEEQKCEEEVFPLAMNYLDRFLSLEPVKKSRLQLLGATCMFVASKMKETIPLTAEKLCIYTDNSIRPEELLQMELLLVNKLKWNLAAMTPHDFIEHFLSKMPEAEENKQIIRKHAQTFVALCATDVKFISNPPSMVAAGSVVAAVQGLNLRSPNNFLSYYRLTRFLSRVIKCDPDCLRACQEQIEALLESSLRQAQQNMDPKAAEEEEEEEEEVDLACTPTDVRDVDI
How it was run: as §1

[6] = tested on: MCF-7; test: Cytotoxicity assay (SRB), MCF-7; format: cell-based; conditions: MCF-7 cells, 3 days, SRB, read-out: In Vitro Cellular Activity IC50 MCF-7
How it was run: as §2

[7] = tested on: HCT-116; test: Cytotoxicity assay (SRB), HCT-116; format: cell-based; conditions: HCT116 cells, 3 days, SRB, read-out: In Vitro Cellular Activity IC50 HCT116
How it was run: as §2

pIC50 [1]	pIC50 [3]	pIC50 [5]	Structure (SMILES)	pIC50 ([2]; Homo sapiens, BT-474, 144 h)	pIC50 ([4]; Homo sapiens, LoVo, 72 h)	pIC50 ([6]; Homo sapiens, MCF7, 72 h)	pIC50 ([7]; Homo sapiens, HCT-116, 72 h)	pIC50 [2]	pIC50 [4]	pIC50 [6]	pIC50 [7]
< 4.30	< 4.30	4.79	O=C1NC(=O)c2ccc(I)cc2/C1=C/Nc1ccc(CN2CCS(=O)(=O)CC2)cc1 [Example 483, 4-{[4-(1,1-Dioxo-1-thiomorpholin-4-ylmethyl)-phenylamino]-methylene}-6-iodo-4H-isoquinoline-1,3-dione]	< 4.30	< 4.30	< 4.30	4.88	–	–	–	–
< 4.30	4.51	6.60	CN1CCN(c2ncc(N/C=C3\C(=O)NC(=O)c4ccc(-c5ccoc5)cc43)cn2)CC1 [Example 484, (4Z)-6-(3-Furyl)-4-({[2-(4-methylpiperazin-1-yl)pyrimidin-5-yl]amino}methylene)isoquinoline-1,3(2H,4H)-dione]	5.60	5.91	5.49	5.95	–	–	–	–
< 4.30	< 4.30	7.22	CCCOc1ccc(CN/C=C2\C(=O)NC(=O)c3ccc(-c4ccoc4)cc32)cc1O [Example 485, (4Z)-6-(3-Furyl)-4-{[(3-hydroxy-4-propoxybenzyl)amino]methylene}isoquinoline-1,3(2H,4H)-dione]	5.97	6.03	5.85	5.87	–	–	–	–
4.82	4.32	6.89	O=C1NC(=O)c2ccc(I)cc2/C1=C/NCc1ccc(-c2ccccc2)c(O)c1 [Example 490, 4-{[(2-Hydroxy-biphenyl-4-ylmethyl)-amino]-methylene}-6-iodo-4H-isoquinoline-1,3-dione]	6.59	6.47	6.06	6.38	–	–	–	–
< 4.30	< 4.30	7.30	O=C1NC(=O)c2ccc(-c3ccoc3)cc2/C1=C/Nc1ccc(CN2CCC(CCO)CC2)cc1 [Example 491, (4Z)-6-(3-Furyl)-4-{[(4-{[4-(2-hydroxyethyl)piperidin-1-yl]methyl}phenyl)amino]methylene}isoquinoline-1,3(2H,4H)-dione]	5.92	5.57	6.00	5.46	–	–	–	–
< 4.30	< 4.30	6.62	O=Cc1ccc(-c2ccc3c(c2)/C(=C/Nc2ccc(CN4CCCCC4)cc2)C(=O)NC3=O)o1 [Example 492, 5-[(4Z)-1,3-Dioxo-4-({[4-(piperidin-1-ylmethyl)phenyl]amino}methylene)-1,2,3,4-tetrahydroisoquinolin-6-yl]-2-furaldehyde]	5.48	5.52	5.39	6.00	–	–	–	–
4.74	4.37	7.52	O=C1NC(=O)c2ccc(-c3ccoc3)cc2/C1=C/NCc1ccc(-c2ccccc2)c(O)c1 [Example 494, 6-Furan-3-yl-4-{[(2-hydroxy-biphenyl-4-ylmethyl)-amino]-methylene}-4H-isoquinoline-1,3-dione]	6.28	6.28	6.00	6.24	–	–	–	–
< 4.30	< 4.30	6.52	CCCCc1ccc(CN/C=C2\C(=O)NC(=O)c3ccc(I)cc32)cc1O [Example 495, 4-[(4-Butyl-3-hydroxy-benzylamino)-methylene]-6-iodo-4H-isoquinoline-1,3-dione]	5.35	5.20	5.48	5.31	–	–	–	–
< 4.30	< 4.30	5.57	O=C1NC(=O)c2ccc(I)cc2/C1=C/NCc1cc(O)ccc1I [Example 496, 4-[(5-Hydroxy-2-iodo-benzylamino)-methylene]-6-iodo-4H-isoquinoline-1,3-dione]	5.13	5.51	5.27	5.59	–	–	–	–
< 4.30	< 4.30	6.43	CN1CCN(c2ccc(N/C=C3\C(=O)NC(=O)c4ccc(-c5ccoc5)cc43)c(F)n2)CC1 [Example 497, (4Z)-4-({[2-Fluoro-6-(4-methylpiperazin-1-yl)pyridin-3-yl]amino}methylene)-6-(3-furyl)isoquinoline-1,3(2H,4H)-dione]	–	–	–	–	5.57	5.49	5.85	5.59
4.49	4.71	6.68	CN1CCN(c2ccc(N/C=C3\C(=O)NC(=O)c4ccc(-c5ccoc5)cc43)c(F)n2)CC1 [Example 498, (4Z)-4-({[2-Fluoro-6-(4-methylpiperazin-1-yl)pyridin-3-yl]amino}methylene)-6-(3-furyl)isoquinoline-1,3(2H,4H)-dione]	–	–	–	–	6.00	5.80	5.46	5.96
4.38	< 4.30	5.27	O=C1NC(=O)c2ccc(I)cc2/C1=C/NCc1cc(O)ccc1-c1ccco1 [Example 499, 4-[(2-Furan-2-yl-5-hydroxy-benzylamino)-methylene]-6-iodo-4H-isoquinoline-1,3-dione]	5.01	5.08	5.04	5.32	–	–	–	–
4.82	4.36	6.85	O=C1NC(=O)c2ccc(I)cc2/C1=C/NCc1ccc(-c2ccc(F)cc2)c(O)c1 [Example 500, 4-{[(4′-Fluoro-2-hydroxy-biphenyl-4-ylmethyl)-amino]-methylene}-6-iodo-4H-isoquinoline-1,3-dione]	5.64	5.74	5.42	5.72	–	–	–	–
4.53	< 4.30	7.52	O=C1NC(=O)c2ccc(-c3ccco3)cc2/C1=C/NCc1ccc(-c2ccc(F)cc2)c(O)c1 [Example 501, 4-{[(4′-Fluoro-2-hydroxy-biphenyl-4-ylmethyl)-amino]-methylene}-6-furan-2-yl-4H-isoquinoline-1,3-dione]	5.46	5.54	5.85	5.59	–	–	–	–
4.46	< 4.30	7.70	O=C1NC(=O)c2ccc(-c3ccco3)cc2/C1=C/NCc1cc(O)ccc1I [Example 503, 6-Furan-2-yl-4-[(5-hydroxy-2-iodo-benzylamino)-methylene]-4H-isoquinoline-1,3-dione]	5.80	5.29	6.00	5.28	–	–	–	–
< 4.30	< 4.30	8.10	O=C1NC(=O)c2ccc(I)cc2/C1=C/NCc1ccc(I)c(O)c1 [Example 504, 4-[(3-Hydroxy-4-iodo-benzylamino)-methylene]-6-iodo-4H-isoquinoline-1,3-dione]	6.00	5.37	5.82	5.41	–	–	–	–
4.88	< 4.30	6.77	CN(C)C1CCN(Cc2ccc(N/C=C3\C(=O)NC(=O)c4ccc(-c5ccoc5)cc43)cc2)C1 (stereo not shown) [Example 513, (4Z)-4-{[(4-{[3-(Dimethylamino)pyrrolidin-1-yl]methyl}phenyl)amino]methylene}-6-(3-furyl)isoquinoline-1,3(2H,4H)-dione]	5.74	5.46	5.60	5.81	–	–	–	–
< 4.30	< 4.30	6.66	O=C1NC(=O)c2ccc(I)cc2/C1=C/NCc1ccc(NC(=O)c2ccco2)c(O)c1 [Example 516, N-[2-Hydroxy-4-({[(Z)-(6-iodo-1,3-dioxo-2,3-dihydroisoquinolin-4(1H)-ylidene)methyl]amino}methyl)phenyl]-2-furamide]	4.74	4.67	4.62	5.42	–	–	–	–
5.19	4.76	8.00	CN(C)Cc1cccc(-c2ccc(CN/C=C3\C(=O)NC(=O)c4ccc(I)cc43)cc2O)c1 [Example 519, 4-{[(3′-Dimethylaminomethyl-2-hydroxy-biphenyl-4-ylmethyl)-amino]-methylene}-6-iodo-4H-isoquinoline-1,3-dione]	5.66	5.85	6.00	6.09	–	–	–	–
